Test results: ChEMBL document CHEMBL4177730, “Rational modification of semaxanib and sunitinib for developing a tumor growth inhibitor targeting ATP binding site of tyrosine kinase” (2018)
Active and inactive are the calls of the source.

Assays:
CCRF-CEM = assay: Growth inhibition of human CCRF-CEM cells after 48 hrs by sulforhodamine B assay; assay type: functional
RPMI-8226 [1] = assay: Growth inhibition of human RPMI8226 cells after 48 hrs by sulforhodamine B assay; assay type: functional; settings: RPMI-8226, 48 h
HOP-62 = assay: Growth inhibition of human HOP62 cells after 48 hrs by sulforhodamine B assay; assay type: functional; settings: HOP-62, 48 h
HCT-116 [2] = assay: Growth inhibition of human HCT116 cells after 48 hrs by sulforhodamine B assay; assay type: functional; settings: HCT-116, 48 h
KM12 = assay: Growth inhibition of human KM12 cells after 48 hrs by sulforhodamine B assay; assay type: functional; settings: KM12, 48 h
SNB-75 = assay: Growth inhibition of human SNB75 cells after 48 hrs by sulforhodamine B assay; assay type: functional; settings: SNB-75, 48 h
Malme-3M = assay: Growth inhibition of human MALME-3M cells after 48 hrs by sulforhodamine B assay; assay type: functional
M14 = assay: Growth inhibition of human M14 cells after 48 hrs by sulforhodamine B assay; assay type: functional; settings: M14, 48 h
OVCAR-4 [3] = assay: Growth inhibition of human OVCAR4 cells after 48 hrs by sulforhodamine B assay; assay type: functional; settings: OVCAR-4, 48 h
OVCAR-8 = assay: Growth inhibition of human OVCAR8 cells after 48 hrs by sulforhodamine B assay; assay type: functional; settings: OVCAR-8, 48 h
786-0 = assay: Growth inhibition of human 786-0 cells after 48 hrs by sulforhodamine B assay; assay type: functional; settings: 786-0, 48 h
ACHN = assay: Growth inhibition of human ACHN cells after 48 hrs by sulforhodamine B assay; assay type: functional
CAKI-1 = assay: Growth inhibition of human CAKI-1 cells after 48 hrs by sulforhodamine B assay; assay type: functional; settings: CAKI-1, 48 h
SN12C = assay: Growth inhibition of human SN12C cells after 48 hrs by sulforhodamine B assay; assay type: functional
MDA-MB-231 [4] = assay: Growth inhibition of human MDA-MB-231 cells after 48 hrs by sulforhodamine B assay; assay type: functional; settings: MDA-MB-231, 48 h
Hs-578T [5] = assay: Growth inhibition of human Hs 578T cells after 48 hrs by sulforhodamine B assay; assay type: functional
T47D = assay: Growth inhibition of human T47D cells after 48 hrs by sulforhodamine B assay; assay type: functional
MDA-MB-468 [6] = assay: Growth inhibition of human MDA-MB-468 cells after 48 hrs by sulforhodamine B assay; assay type: functional; settings: MDA-MB-468, 48 h
K562 = assay: Growth inhibition of human K562 cells at 10 uM after 48 hrs by sulforhodamine B assay; assay type: functional, cell-based
MOLT-4 = assay: Growth inhibition of human MOLT4 cells at 10 uM after 48 hrs by sulforhodamine B assay; assay type: functional, cell-based
RPMI-8226 [7] = assay: Growth inhibition of human RPMI8226 cells at 10 uM after 48 hrs by sulforhodamine B assay; assay type: functional, cell-based
SR = assay: Growth inhibition of human SR cells at 10 uM after 48 hrs by sulforhodamine B assay; assay type: functional, cell-based
NCI-H226 = assay: Growth inhibition of human NCI-H226 cells at 10 uM after 48 hrs by sulforhodamine B assay; assay type: functional, cell-based
HCC 2998 = assay: Growth inhibition of human HCC2998 cells at 10 uM after 48 hrs by sulforhodamine B assay; assay type: functional, cell-based
HCT-116 [8] = assay: Growth inhibition of human HCT116 cells at 10 uM after 48 hrs by sulforhodamine B assay; assay type: functional, cell-based
HT-29 = assay: Growth inhibition of human HT-29 cells at 10 uM after 48 hrs by sulforhodamine B assay; assay type: functional, cell-based
SW-620 = assay: Growth inhibition of human SW620 cells at 10 uM after 48 hrs by sulforhodamine B assay; assay type: functional, cell-based
SF-295 = assay: Growth inhibition of human SF295 cells at 10 uM after 48 hrs by sulforhodamine B assay; assay type: functional, cell-based
MDA-MB-435 = assay: Growth inhibition of human MDA-MB-435 cells at 10 uM after 48 hrs by sulforhodamine B assay; assay type: functional, cell-based
OVCAR-4 [9] = assay: Growth inhibition of human OVCAR4 cells at 10 uM after 48 hrs by sulforhodamine B assay; assay type: functional, cell-based
NCI/ADR-RES = assay: Growth inhibition of human NCI-ADR-RES cells at 10 uM after 48 hrs by sulforhodamine B assay; assay type: functional, cell-based
RXF 393 = assay: Growth inhibition of human RXF393 cells at 10 uM after 48 hrs by sulforhodamine B assay; assay type: functional, cell-based
UO-31 = assay: Growth inhibition of human UO31 cells at 10 uM after 48 hrs by sulforhodamine B assay; assay type: functional, cell-based
DU-145 = assay: Growth inhibition of human DU145 cells at 10 uM after 48 hrs by sulforhodamine B assay; assay type: functional, cell-based
MCF7 = assay: Growth inhibition of human MCF7 cells at 10 uM after 48 hrs by sulforhodamine B assay; assay type: functional, cell-based
MDA-MB-231 [10] = assay: Growth inhibition of human MDA-MB-231 cells at 10 uM after 48 hrs by sulforhodamine B assay; assay type: functional, cell-based
Hs-578T [11] = assay: Growth inhibition of human Hs 578T cells at 10 uM after 48 hrs by sulforhodamine B assay; assay type: functional, cell-based
MDA-MB-468 [12] = assay: Growth inhibition of human MDA-MB-468 cells at 10 uM after 48 hrs by sulforhodamine B assay; assay type: functional, cell-based
[13] = read-out: LC50 (the source's name)

O=C1/C(=C\c2cccn2Cc2ccccc2)c2ccccc2N1c1c(Cl)cccc1Cl
1.28 µM: GI50 (RPMI-8226 [1])
5.88 µM: GI50 (MDA-MB-231 [4])
3.38 µM: GI50 (HCT-116 [2])
0.21 µM: GI50 (T47D)
> 100 µM: GI50 (CCRF-CEM) | TGI (CCRF-CEM) | CC50 (CCRF-CEM; [13]) | TGI (RPMI-8226 [1]) | CC50 (RPMI-8226 [1]; [13]) | GI50 (HOP-62) | TGI (HOP-62) | CC50 (HOP-62; [13]) | TGI (HCT-116 [2]) | CC50 (HCT-116 [2]; [13]) | TGI (KM12) | CC50 (KM12; [13]) | TGI (SNB-75) | CC50 (SNB-75; [13]) | TGI (Malme-3M) | CC50 (Malme-3M; [13]) | GI50 (M14) | TGI (M14) | CC50 (M14; [13]) | TGI (OVCAR-4 [3]) | CC50 (OVCAR-4 [3]; [13]) | GI50 (OVCAR-8) | TGI (OVCAR-8) | CC50 (OVCAR-8; [13]) | GI50 (786-0) | TGI (786-0) | CC50 (786-0; [13]) | TGI (ACHN) | CC50 (ACHN; [13]) | TGI (CAKI-1) | CC50 (CAKI-1; [13]) | GI50 (SN12C) | TGI (SN12C) | CC50 (SN12C; [13]) | TGI (MDA-MB-231 [4]) | CC50 (MDA-MB-231 [4]; [13]) | GI50 (Hs-578T [5]) | TGI (Hs-578T [5]) | CC50 (Hs-578T [5]; [13]) | CC50 (T47D; [13])
active: growth inhibition (GI) (K562) | growth inhibition (GI) (MOLT-4) | growth inhibition (GI) (RPMI-8226 [7]) | growth inhibition (GI) (SR) | growth inhibition (GI) (NCI-H226) | growth inhibition (GI) (HCC 2998) | growth inhibition (GI) (HCT-116 [8]) | growth inhibition (GI) (HT-29) | growth inhibition (GI) (SW-620) | growth inhibition (GI) (SF-295) | growth inhibition (GI) (MDA-MB-435) | growth inhibition (GI) (OVCAR-4 [9]) | growth inhibition (GI) (NCI/ADR-RES) | growth inhibition (GI) (RXF 393) | growth inhibition (GI) (UO-31) | growth inhibition (GI) (DU-145) | growth inhibition (GI) (MCF7) | growth inhibition (GI) (MDA-MB-231 [10]) | growth inhibition (GI) (Hs-578T [11]) | growth inhibition (GI) (MDA-MB-468 [12])
0.12 µM: GI50 (OVCAR-4 [3])
5.24 µM: GI50 (SNB-75)
8.31 µM: GI50 (ACHN) | GI50 (CAKI-1)
0.38 µM: GI50 (KM12)
0.063 µM: GI50 (MDA-MB-468 [6])
1.38 µM: CC50 (MDA-MB-468 [6]; [13])
3.16 µM: GI50 (Malme-3M)
1.86 µM: TGI (T47D)
0.28 µM: TGI (MDA-MB-468 [6])
